Key:
TG1 = molecular target: T1, TG1 (Homo sapiens, UniProt P22735); experiment: glutamate dehydrogenase-coupled deamidation assay, substrate Cbz-Gln-Ser; assay type: biochemical; conditions: irreversible inhibition model, full progress curves
T1 sequence (P22735 1-817): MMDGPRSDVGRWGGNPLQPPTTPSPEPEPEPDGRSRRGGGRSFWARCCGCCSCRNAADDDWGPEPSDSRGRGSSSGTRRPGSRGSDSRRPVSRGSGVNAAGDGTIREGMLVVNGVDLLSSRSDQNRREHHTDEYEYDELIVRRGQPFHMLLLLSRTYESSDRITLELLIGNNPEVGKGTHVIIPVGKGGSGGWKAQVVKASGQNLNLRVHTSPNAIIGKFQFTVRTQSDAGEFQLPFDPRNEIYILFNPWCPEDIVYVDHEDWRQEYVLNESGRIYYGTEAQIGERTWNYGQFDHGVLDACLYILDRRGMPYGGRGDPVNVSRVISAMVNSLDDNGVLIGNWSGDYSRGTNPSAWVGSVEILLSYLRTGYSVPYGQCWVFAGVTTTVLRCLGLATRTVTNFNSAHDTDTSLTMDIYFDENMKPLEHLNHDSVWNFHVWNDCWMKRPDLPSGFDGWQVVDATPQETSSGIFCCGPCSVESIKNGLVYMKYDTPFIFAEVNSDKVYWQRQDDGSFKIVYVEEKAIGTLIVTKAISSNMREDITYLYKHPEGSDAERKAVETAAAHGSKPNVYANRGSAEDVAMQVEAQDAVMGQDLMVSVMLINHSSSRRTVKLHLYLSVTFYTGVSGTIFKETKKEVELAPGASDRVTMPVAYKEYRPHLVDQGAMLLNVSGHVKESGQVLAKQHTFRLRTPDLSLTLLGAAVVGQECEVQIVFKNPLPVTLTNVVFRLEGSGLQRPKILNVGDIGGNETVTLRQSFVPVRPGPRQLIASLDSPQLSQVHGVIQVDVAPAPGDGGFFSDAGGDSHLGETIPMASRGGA

TG2 = molecular target: T2, TG2 (Homo sapiens, UniProt P21980); experiment: glutamate dehydrogenase-coupled deamidation assay, substrate Cbz-Gln-Gly; assay type: biochemical; conditions: irreversible inhibition model, full progress curves
T2 sequence (P21980 1-687): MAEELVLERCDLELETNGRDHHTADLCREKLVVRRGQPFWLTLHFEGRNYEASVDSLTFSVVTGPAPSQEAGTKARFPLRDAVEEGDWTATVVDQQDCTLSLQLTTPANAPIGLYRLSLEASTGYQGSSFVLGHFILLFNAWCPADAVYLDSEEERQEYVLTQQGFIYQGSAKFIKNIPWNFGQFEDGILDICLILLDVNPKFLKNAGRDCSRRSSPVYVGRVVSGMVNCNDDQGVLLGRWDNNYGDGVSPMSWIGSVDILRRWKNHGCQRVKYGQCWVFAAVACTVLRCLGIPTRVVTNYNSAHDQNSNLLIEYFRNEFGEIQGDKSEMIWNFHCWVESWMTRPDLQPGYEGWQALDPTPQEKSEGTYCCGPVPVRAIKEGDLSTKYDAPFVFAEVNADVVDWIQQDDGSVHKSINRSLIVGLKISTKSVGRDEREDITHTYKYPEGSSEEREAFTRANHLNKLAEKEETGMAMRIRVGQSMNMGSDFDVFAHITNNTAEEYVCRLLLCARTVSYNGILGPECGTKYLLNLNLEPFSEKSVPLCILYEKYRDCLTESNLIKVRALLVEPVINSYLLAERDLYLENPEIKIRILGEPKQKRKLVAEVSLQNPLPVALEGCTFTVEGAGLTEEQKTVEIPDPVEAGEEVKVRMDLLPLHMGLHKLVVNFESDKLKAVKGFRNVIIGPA

[1] = system: proinflammatory cytokines IL-6, PAI-1 and MIP1α; experiment: circulating proinflammatory cytokines in LPS-induced murine sepsis (ELISA); assay type: in vivo, mice
Experimental: FIG. 3: The TG2 inhibitor CK996 reduces the proinflammatory cytokine load in septic mice at doses as low as 1.5 mg/kg: The graphs display the absolute circulating levels of the proinflammatory cytokines IL-6, PAI-1 and MIP1α in septic male BL6 mice as a function of the dose of intraperitoneally administered CK996 or ERW1041E. In each graph, the right y-axis depicts the relative levels of the respective cytokines over their background level in our control cohort. All septic mice in this study received lipopolysaccharide (LPS, 5 mg/kg i.v., at t=0) and either a TG2 inhibitor (CK996 or ERW1041E at 50, 15, 5.0 and 1.5 mg/kg i.p., at t=0 and 60 min) in vehicle (PBS with 5% DMSO, 2% Tween-80 and 2.5% hydroxypropyl-beta-cyclodextrin) or, for the septic control cohort, vehicle alone. An additional cohort defining the baseline cytokine levels received only intravenous vehicle and intraperitoneal inhibitor vehicle, respectively. At 3 hours the mice were euthanized and plasma collected in lithium heparin tubes. The levels of the respective proinflammatory cytokines were quantified using commercial ELISA kits according to the manufacturers' instructions. […]
Having established that intraperitoneal administration of CK996 could suppress TG2 activity in septic mice, we next sought to determine whether this pharmacologic intervention had any effect on the circulating levels of the key proinflammatory cytokines in sepsis. To this end, we administered CK996 in doses of 1.5, 5.0, 15 or 50 mg/kg intraperitoneally to septic mice (5 mg/kg LPS, iv) and measured the level of the proinflammatory cytokines IL-6, PAI-1 and MIP1α in plasma that was collected at 3 hours after infusion of LPS.
We therefore co-administered recombinant human thioredoxin protein (10 mg/kg, ip) along with CK996 (50 mg/kg, ip) to septic mice (5 mg/kg, iv) and quantified the load of proinflammatory cytokines as above.

O=C(N[C@@H]1C[C@@H](C(=O)NC[C@@H]2CC(Br)=NO2)N(C(=O)OCc2cnc3ccccc3c2)C1)c1cccnc1 [Compound 5, (2S,4R)-quinolin-3-ylmethyl 2-((((S)-3-bromo-4,5-dihydroisoxazol-5-yl)methyl)carbamoyl)-4-(nicotinamido)pyrrolidine-1-carboxylate]
kinh/Ki TG1 (TG1): 333 M⁻¹ s⁻¹
kinh/Ki TG2 (TG2): 1800 M⁻¹ s⁻¹
circulating levels of IL-6, PAI-1 and MIP1α ([1]; septic mice (LPS 5 mg/kg iv), all doses tested (1.5, 5.0, 15 or 50 mg/kg ip), plasma at 3 hours): dramatically reduced
dose that reduces the proinflammatory cytokine load ([1]; septic mice, ip at t=0 and 60 min): ≤ 1.5 mg/kg

Source: US10010541B2, “Modulation of tissue transglutaminase activation in disease” (The Board of Trustees of the Leland Stanford Junior …, priority 2014, dated 2018)
